Experimental data: patent US20240116918A1, “SUBSTITUTED TRICYCLIC COMPOUND AS PRMT5 INHIBITOR AND USE THEREOF” (NANJING SANHOME PHARMACEUTICAL CO., LTD., priority 2019, published 2024)

Molecular target: PRMT5 (Homo sapiens (Human), UniProt O14744)
Experiment: In vitro evaluation of kinase activity (PRMT5 enzymatic assay, [3H]-SAM FlashPlate)
Assay type: biochemical
Conditions: polypeptide substrate H4(1-21)S1ac 100 nM, [3H]-SAM 250 nM, 25° C., 60 min; read-out: Enzyme IC50 PRMT5
Procedure: Compounds: the compounds of the present invention prepared in the above examples. Each compound was formulated into a 10 mM stock solution with DMSO, and finally diluted into 10 concentrations for detection, with the final concentrations being 10000.00 nM, 3333.33 nM, 1111.11 nM, 370.37 nM, 123.46 nM, 41.15 nM, 13.72 nM, 4.57 nM, 1.52 nM, and 0.51 nM.
Reagents and consumables: PRMTS, purchased from Active Motif, Cat. No. 31921; polypeptide substrate H4(1-21)S1ac, purchased from Gill Biochemical (Shanghai) Co., Ltd., Cat. No. 342095; [^3H]-SAM, purchased From PerkinElmer, Cat. No. NET155V001MC; SAM, purchased from Sigma, Cat. No. A7007-100MG; SAH, purchased from Sigma, Cat. No. A9384-25MG; DTT, purchased from Sangon Bioengineering (Shanghai) Co., Ltd., Cat. No. A620058-0005. Corning-3657, purchased from Corning, Cat. No. 3657; Echo Qualified 384-Well, purchased from Labcyte, Cat. No. P-05525; FlashPlate, purchased from Perkin Elmer, Cat. No. SMP410J001PK.
2.1. Preparation of reaction buffer and reaction stop solution: the composition of 1× reaction buffer was 10 mM Tris-HCl, pH 8.0; 0.01% Tween-20; and 1 mM DTT. The composition of the reaction stop solution was 125 μM […] solution.
The compounds were dissolved in 100% DMSO to prepare 10 mM stock solutions and then diluted to desired concentrations on an Echo 384 well plate.
250 nL of the compounds diluted above were transferred from the Echo 384 well plate to a 384 well reaction plate using the Echo550 instrument.
PRMT5 was added to 1× reaction buffer to form 1.67× enzyme solution.
The polypeptide substrate and [^3H]-SAM were added to 1× reaction buffer to form 2.5× substrate solution (the final concentrations were 100 nM and 250 nM, respectively).
15 μL of 1.67× enzyme solution was added to the wells of a 384 well reaction plate. For control wells without enzymatic activity, the enzyme solution was replaced with 15 μL of 1× reaction buffer. The plate was centrifuged at 1000 rpm for 1 min and incubated at room temperature for 15 min. […]

Chain of PRMT5 (O14744 whole entry): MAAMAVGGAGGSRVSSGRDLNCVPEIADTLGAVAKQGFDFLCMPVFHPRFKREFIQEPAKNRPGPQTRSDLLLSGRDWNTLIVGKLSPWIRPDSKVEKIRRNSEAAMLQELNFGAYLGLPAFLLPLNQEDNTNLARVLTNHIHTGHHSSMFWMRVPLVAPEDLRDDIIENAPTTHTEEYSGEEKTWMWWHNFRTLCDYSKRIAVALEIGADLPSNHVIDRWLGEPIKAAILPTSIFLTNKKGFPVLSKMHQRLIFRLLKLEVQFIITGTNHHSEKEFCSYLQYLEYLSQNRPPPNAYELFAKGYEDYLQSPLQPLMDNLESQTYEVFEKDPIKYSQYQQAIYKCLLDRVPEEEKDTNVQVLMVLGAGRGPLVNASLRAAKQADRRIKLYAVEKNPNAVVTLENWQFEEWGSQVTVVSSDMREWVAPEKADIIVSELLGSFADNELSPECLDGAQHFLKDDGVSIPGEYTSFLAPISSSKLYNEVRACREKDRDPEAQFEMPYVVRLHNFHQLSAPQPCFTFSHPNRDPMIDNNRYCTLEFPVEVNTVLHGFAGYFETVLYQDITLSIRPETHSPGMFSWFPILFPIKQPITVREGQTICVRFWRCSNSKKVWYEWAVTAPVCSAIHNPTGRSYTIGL
Chain of PRMT5 (Q9BQA1 whole entry partner): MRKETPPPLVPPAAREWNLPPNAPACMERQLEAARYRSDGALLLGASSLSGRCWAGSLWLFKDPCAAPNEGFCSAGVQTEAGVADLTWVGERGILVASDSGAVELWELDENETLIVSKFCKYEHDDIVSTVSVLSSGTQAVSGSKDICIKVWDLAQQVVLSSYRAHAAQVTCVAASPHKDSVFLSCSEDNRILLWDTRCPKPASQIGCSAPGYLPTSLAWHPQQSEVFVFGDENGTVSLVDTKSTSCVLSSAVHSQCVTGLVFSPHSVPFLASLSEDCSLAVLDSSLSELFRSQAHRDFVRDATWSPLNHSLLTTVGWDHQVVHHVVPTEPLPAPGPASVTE

- IC50: 2660 nM
Structure (SMILES): CC(=O)N1CC2(CC(Nc3ccc4c(c3)C(=O)N(C[C@H](O)CN3CCc5ccccc5C3)CC43CC3)C2)C1 [Example 10, (R)-7′-((2-Acetyl-2-azaspiro[3.3]hept-6-yl)amino)-2′-(3-(3,4-dihydroisoquinolin-2(1H)-yl)-2-hydroxypropyl)-2′,3′-dihydro-1′H-spiro[cyclopropane-1,4′-isoquinolin]-1′-one]
